Laboratory results as given in article PMC8125234, “Cardiolipin Stabilizes and Increases Catalytic Efficiency of Carnitine Palmitoyltransferase II and Its Variants S113L, P50H, and Y479F” (International Journal of Molecular Sciences, 2021).
Numbering of substitutions follows the chain as printed. “Also recorded” adds a separate entry of the source.

Columns and labels:
Experiment in all cases: Lipid binding assay (membrane lipid strips)
Conditions in all cases: 0.4 mg enzyme, 100 pmol lipid spots
[1] = target: T1, CPT II WT (Homo sapiens, UniProt P23786)
T1 construct: made in house; host or cells: Escherichia coli BL21Gold DE
T1 sequence (P23786 26-658): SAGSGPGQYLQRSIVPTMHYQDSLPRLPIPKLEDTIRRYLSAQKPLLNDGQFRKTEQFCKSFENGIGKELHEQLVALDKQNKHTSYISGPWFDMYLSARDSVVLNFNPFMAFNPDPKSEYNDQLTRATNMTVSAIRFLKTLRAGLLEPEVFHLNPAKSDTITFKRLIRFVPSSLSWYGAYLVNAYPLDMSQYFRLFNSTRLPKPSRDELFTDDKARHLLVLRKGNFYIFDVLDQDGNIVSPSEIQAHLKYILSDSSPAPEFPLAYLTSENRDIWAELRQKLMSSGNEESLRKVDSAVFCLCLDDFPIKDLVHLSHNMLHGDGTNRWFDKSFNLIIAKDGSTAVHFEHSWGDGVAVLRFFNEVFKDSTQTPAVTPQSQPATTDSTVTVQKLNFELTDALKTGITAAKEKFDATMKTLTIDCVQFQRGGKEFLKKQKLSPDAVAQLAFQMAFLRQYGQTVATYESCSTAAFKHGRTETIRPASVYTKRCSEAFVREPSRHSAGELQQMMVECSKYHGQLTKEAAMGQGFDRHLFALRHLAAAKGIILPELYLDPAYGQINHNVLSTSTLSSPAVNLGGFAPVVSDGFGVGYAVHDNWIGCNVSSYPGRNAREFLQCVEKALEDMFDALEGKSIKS
Experimental: (§1) Direct interaction of CPT II WT and variants with phospholipids of the mitochondrial membrane was assessed using membrane lipid strips (Echelon Biosciences, Salt Lake City, Utah, USA). The membrane was spotted with 100 pmol of various cell membrane lipids. The assay was performed following manufacturer’s instructions with some modifications explained in the following. At first, the membrane was washed twice in phosphate buffered saline (PBS). After 1 h incubation with blocking solution (3% BSA fatty acid-free in PBS) at room temperature, the membrane was incubated with purified CPT II WT or variant (final amount 0.4 mg protein) for 2 h at 4 °C. After three washing steps, a-His-Probe (H3) mouse monoclonal antibody (Santa Cruz Biotech, Santa Cruz, CA, USA, 1:1000 dilution in PBS containing 3% BSA) was added to the membrane over night at 4 °C. The membrane was washed three times with PBS and incubated with mouse IgG horseradish peroxidase-linked whole antibody (from sheep, Amersham, Little Chalfont, Buckinghamshire, UK) for 1 h at 4 °C. The interaction was visualized by ECL Western blotting detection reagents (Amersham, Little Chalfont, Buckinghamshire, UK).

[2] = target: T2, CPT II variant Y479F (Homo sapiens, UniProt P23786, Y479F)
T2 construct: made in house; host or cells: Escherichia coli BL21Gold DE
T2 sequence (P23786 26-658 Y479F): T1 sequence (P23786 26-658) with Y454F
Experimental: as §1

[3] = target: T3, CPT II variant P50H (Homo sapiens, UniProt P23786, P50H)
T3 construct: made in house; host or cells: Escherichia coli BL21Gold DE
T3 sequence (P23786 26-658 P50H): T1 sequence (P23786 26-658) with P25H
Experimental: as §1

Cardiolipin [CL]
Signal for interaction on membrane lipid strips [1]: clearly proven | Signal for interaction on membrane lipid strips [2]: clearly proven | Signal for interaction on membrane lipid strips [3]: lowest; also recorded: clearly proven
